From ChEMBL document CHEMBL1159248, “Tyrosinase inhibitors from Bolivian medicinal plants” (J Nat Prod, 1995)
Active and inactive are the calls of the source. The rule behind the calls is not given here.

Legend:
[1] = target: T1, Tyrosinase (Agaricus bisporus) (UniProt O42713); experiment: Inhibition of mushroom tyrosinase assessed as L-3,4-dihydroxyphenylalanine oxidation
T1 sequence (whole entry): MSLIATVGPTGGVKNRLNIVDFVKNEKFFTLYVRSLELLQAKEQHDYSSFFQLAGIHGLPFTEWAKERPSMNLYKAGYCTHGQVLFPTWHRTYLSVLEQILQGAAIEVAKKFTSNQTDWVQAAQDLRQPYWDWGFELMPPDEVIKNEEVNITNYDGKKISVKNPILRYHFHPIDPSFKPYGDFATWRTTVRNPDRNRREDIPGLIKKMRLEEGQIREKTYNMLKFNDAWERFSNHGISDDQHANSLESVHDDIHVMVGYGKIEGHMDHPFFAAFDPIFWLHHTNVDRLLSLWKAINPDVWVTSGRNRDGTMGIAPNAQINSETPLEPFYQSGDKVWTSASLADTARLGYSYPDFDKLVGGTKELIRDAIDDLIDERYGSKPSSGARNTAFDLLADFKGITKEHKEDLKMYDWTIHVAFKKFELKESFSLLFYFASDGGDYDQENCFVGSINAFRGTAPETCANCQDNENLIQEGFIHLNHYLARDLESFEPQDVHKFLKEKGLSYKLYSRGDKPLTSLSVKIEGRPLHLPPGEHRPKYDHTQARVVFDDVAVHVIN

[2] = target: T1, Tyrosinase (Agaricus bisporus); experiment: Competitive inhibition of mushroom tyrosinase assessed as L-3,4-dihydroxyphenylalanine oxidation
[3] = target: T1, Tyrosinase (Agaricus bisporus); experiment: Inhibition of mushroom tyrosinase assessed as L-3,4-dihydroxyphenylalanine at 100 ug/ml

SMILES	ID50 [1] [µM]	Activity [2]	inhibition [3] [%]
O=C(/C=C/c1ccc(O)cc1)OC[C@H]1O[C@@H](Oc2cc(O)c3c(=O)c(O)c(-c4ccc(O)cc4)oc3c2)[C@H](O)[C@@H](O)[C@@H]1O	390		
O=C(O)c1ccc(O)cc1	1900	Active	
COc1cc(/C=C/C(=O)OC[C@H]2O[C@@H](Oc3cc(O)c4c(=O)c(O)c(-c5ccc(O)cc5)oc4c3)[C@H](O)[C@@H](O)[C@@H]2O)ccc1O	440		
O=C(O[C@H]1O[C@@H]2COC(=O)c3cc(O)c(O)c(O)c3-c3c(cc(O)c(O)c3O)C(=O)O[C@H]2[C@@H]2OC(=O)c3cc(O)c(O)c(O)c3-c3c(cc(O)c(O)c3O)C(=O)O[C@@H]12)c1cc(O)c(O)c(Oc2c(C(=O)O[C@H]3O[C@@H]4COC(=O)c5cc(O)c(O)c(O)c5-c5c(cc(O)c(O)c5O)C(=O)O[C@H]4[C@@H]4OC(=O)c5cc(O)c(O)c(O)c5-c5c(cc(O)c(O)c5O)C(=O)O[C@@H]34)cc(O)c(O)c2O)c1	61		
O=c1cc(-c2ccc(O[C@@H]3O[C@H](CO)[C@@H](O)[C@H](O)[C@H]3O)c(O)c2)oc2cc(O)cc(O)c12			100
O=c1c(O)c(-c2ccc(O)c(O)c2)oc2cc(O)cc(O)c12	70	Active	
